Assay results taken from ChEMBL document CHEMBL1125598, “HIV protease: a novel chemotherapeutic target for AIDS” (J Med Chem, 1991).
Where “and” joins values, the source holds several entries; their conditions need not be identical. Identical values can stand only once. Peptide text beside a SMILES is read from it.

Experiments:
[1] = biological target: T1, Human immunodeficiency virus type 1 protease (Human immunodeficiency virus 1, UniProt Q72874); assay: Binding affinity for HIV-1 protease
[2] = biological target: T1, Human immunodeficiency virus type 1 protease; assay: The compound was tested for its affinity against HIV-1 protease
H9 [3] = assay: Inhibitory activity against HIV-1 mB in H9 cells; Range 20-150 nM; format: functional, cell-based; conditions: Homo sapiens
[4] = Toxicity against HIV-1 mB in H9 cells; Range 10 to >100 uM; format: cell-based; conditions: human, read-out: TC50 (the source's name)
MT4 = assay: Inhibitory activity against HIV-1 mB in MT-4 cells; Range 20-150 nM; format: functional, cell-based; conditions: Homo sapiens
[5] = Toxicity against HIV-1 mB in MT-4 cells; Range 10 to >100 uM; format: cell-based, MT4; conditions: human, read-out: TC50 (the source's name)
[6] = tested on: Human immunodeficiency virus 1; assay: Concentration for prevention of spread of HIV infection; range 25-100 uM; format: functional, organism-based
H9 [7] = assay: Inhibitory activity against HIV-1IIIb in H-9 cells using immunofluorescence; format: functional, Homo sapiens
C8166 = assay: Antiviral activity in HIV-1RF infected C8166 cells; format: functional, cell-based; conditions: Homo sapiens
JM1 = assay: Antiviral activity in HIV-1GB8 infected JM cells; format: functional, cell-based; conditions: Homo sapiens

Compound | Ki [1] [nM] | IC50 [2] | further results
CC(C)[C@H](NC(=O)[C@@H](NC(=O)C(Cc1ccccc1)CP(=O)(O)[C@@H](Cc1ccccc1)NC(=O)[C@@H](NC(=O)[C@@H](NC(=O)OC(C)(C)C)C(C)C)C(C)C)C(C)C)C(N)=O (stereo partly drawn) (HELM PEPTIDE1{[CC(C)(C)OC(=O)[*:2]].V.V.[O=C(C(Cc1ccccc1)CP(=O)(O)[C@@H](Cc1ccccc1)N[*:1])[*:2]].V.V.[am]}$$$$V2.0) | 0.04 | – | –
CC(C)(C)OC(=O)C1CCCN1C[C@@H](O)[C@H](Cc1ccccc1)NC(=O)[C@H](CC(N)=O)NC(=O)OCc1ccccc1 (stereo partly drawn) | – | 140 nM | –
CC(C)[C@H](NC(=O)[C@@H](NC(=O)C1CCCN1CP(=O)(O)[C@@H](Cc1ccccc1)NC(=O)c1ccccc1)C(C)C)C(N)=O (stereo partly drawn) | 450 | – | –
CC[C@H](C)[C@H](NC(=O)[C@@H](C[C@H](O)[C@H](CC1CCCCC1)NC(=O)[C@H](C)NC(C)(C)C)C(C)C)C(=O)NCc1ccccn1 | 70 | – | –
CC(C)(C)NC(=O)C1CCCCN1C[C@@H](O)[C@H](Cc1ccccc1)NC(=O)[C@H](CC(N)=O)NC(=O)c1ccc2ccccc2n1 (stereo partly drawn) | – | 2 nM | –
CC(C)[C@H](NC(=O)[C@@H](NC(=O)C(Cc1ccccc1)CP(=O)(O)[C@@H](Cc1ccccc1)NC(=O)c1ccccc1)C(C)C)C(N)=O (stereo partly drawn) | 0.6 | – | –
CC(C)[C@H](NC(=O)OCc1ccccc1)C(=O)N[C@@H](Cc1ccccc1)[C@H](O)[C@H](O)[C@H](Cc1ccccc1)NC(=O)[C@@H](NC(=O)OCc1ccccc1)C(C)C | – | 0.2 nM and < 0.4 nM | IC50 (H9 [3]): 20 nM; CC50 [4]: 10000 nM; IC50 (MT4): 20 nM; CC50 [5]: 10000 nM
CC(=O)N[C@@H](CO)C(=O)N[C@@H](CCC(N)=O)C(=O)N[C@@H](CC(N)=O)C(=O)N[C@@H](Cc1ccccc1)[C@@H](O)CC(=O)N[C@H](C(=O)N[C@H](C(N)=O)C(C)C)C(C)C (HELM PEPTIDE1{[ac].S.Q.N.[O=C(C[C@H](O)[C@H](Cc1ccccc1)N[*:1])[*:2]].V.V.[am]}$$$$V2.0) | 39000 | – | –
CC[C@H](C)[C@H](NC(=O)C1CCCN1C[C@H](C)[C@H](Cc1ccccc1)NC(=O)[C@H](CC(N)=O)NC(=O)[C@H](CC(C)C)NC(=O)[C@H](CO)NC(C)=O)C(=O)N[C@H](C(=O)OC)C(C)C (stereo partly drawn) (HELM PEPTIDE1{[ac].S.L.N.[C[C@@H](CN1CCCC1C(=O)[*:2])[C@H](Cc1ccccc1)N[*:1]].I.V.[CO[*:1]]}$$$$V2.0) | 0.66 | – | –
COC(=O)[C@@H](NC(=O)[C@@H](NC(=O)CC[C@@H](O)[C@@H](Cc1ccccc1)NC(=O)[C@H](C)NC(=O)[C@H](C)N)C(C)C)C(C)C (HELM PEPTIDE1{A.A.[O=C(CC[C@@H](O)[C@@H](Cc1ccccc1)N[*:1])[*:2]].V.V.[CO[*:1]]}$$$$V2.0) | 18 | – | Concentration [6]: 100 µM
CC(C)(C)OC(=O)N[C@@H](Cc1ccccc1)[C@@H](O)C[C@@H](Cc1ccccc1)C(=O)N[C@H]1c2ccccc2C[C@H]1O | – | – | IC100 (H9 [7]): 200 nM
CC(C)[C@H](NC(=O)OCc1ccccc1)C(=O)N[C@@H](Cc1ccccc1)C(O)[C@H](Cc1ccccc1)NC(=O)[C@@H](NC(=O)OCc1ccccc1)C(C)C | – | 3 nM | –
CC[C@H](C)[C@H](NC(=O)[C@@H](C[C@H](O)[C@H](CC(C)C)NC(=O)[C@H](Cc1c[nH]cn1)NC(=O)[C@H](Cc1ccccc1)NC(=O)[C@@H]1CCCN1C(=O)[C@H](Cc1c[nH]cn1)NC(=O)OC(C)(C)C)C(C)C)C(=O)N[C@@H](Cc1c[nH]cn1)C(=O)O (HELM PEPTIDE1{[CC(C)(C)OC(=O)[*:2]].H.P.F.H.[CC(C)C[C@H](N[*:1])[C@@H](O)C[C@H](C(=O)[*:2])C(C)C].I.H}$$$$V2.0) | 5 | – | –
CC(C)C[C@H](NC(=O)[C@H](Cc1ccccc1)CP(=O)(O)[C@H](Cc1ccccc1)NC(=O)OC(C)(C)C)C(=O)N[C@@H](Cc1ccccc1)C(N)=O | – | 9 nM | –
CC[C@H](C)[C@H](NC(=O)[C@H](C(C)C)[C@@H](O)[C@H](O)[C@H](CC1CCCCC1)NC(=O)[C@H](Cc1c[nH]cn1)NC(=O)COc1cccc2ccccc12)C(=O)NCc1ccccn1 | < 1 | – | –
CC(C)(C)NC(=O)[C@H]1C[C@@H]2CCCC[C@@H]2CN1C[C@@H](O)[C@H](Cc1ccccc1)NC(=O)[C@H](CC(N)=O)NC(=O)c1ccc2ccccc2n1 | – | – | IC50 (C8166): 2 nM; IC50 (JM1): 2.5 nM
CCCC[C@H](CN[C@H](CCCC)C(=O)N[C@@H](CCC(N)=O)C(=O)N[C@@H](CCCNC(=N)N)C(N)=O)NC(=O)[C@@H](NC(=O)[C@@H](NC(C)=O)[C@@H](C)O)[C@@H](C)CC | – | 780 nM | –
CC[C@H](C)[C@H](NC(=O)[C@@H]1CCCN1C[C@H](Cc1ccccc1)NC(=O)[C@H](CC(N)=O)NC(=O)[C@H](CCC(N)=O)NC(=O)[C@H](CO)NC(=O)[C@@H](N)C(C)C)C(=O)N[C@H](C(=O)O)C(C)C (HELM PEPTIDE1{V.S.Q.N.[O=C([C@@H]1CCCN1C[C@H](Cc1ccccc1)N[*:1])[*:2]].I.V}$$$$V2.0) | – | 3.5 nM | –
COC(=O)[C@@H](NC(=O)[C@@H](NC(=O)CCP(=O)(O)[C@@H](Cc1ccccc1)NC(=O)[C@H](C)NC(=O)[C@H](C)NC(=O)[C@@H](N)CO)C(C)C)C(C)C (HELM PEPTIDE1{S.A.A.[O=C(CCP(=O)(O)[C@@H](Cc1ccccc1)N[*:1])[*:2]].V.V.[CO[*:1]]}$$$$V2.0) | 4400 | – | –
CC(=O)N[C@@H](Cc1ccccc1)C(O)[C@H](Cc1ccccc1)NC(C)=O | – | > 10000 nM | –
CC(C)[C@H](NC(=O)[C@@H](NC(=O)[C@@H]1CCCN1C[C@H](Cc1ccccc1)NC(=O)[C@H](C)NC(=O)[C@H](C)NC(=O)[C@@H](N)CO)C(C)C)C(N)=O (HELM PEPTIDE1{S.A.A.[O=C([C@@H]1CCCN1C[C@H](Cc1ccccc1)N[*:1])[*:2]].V.V.[am]}$$$$V2.0) | – | 19000 nM | –
COC(=O)[C@@H](NC(=O)[C@@H](NC(=O)C[C@H](O)[C@H](Cc1ccccc1)NC(=O)[C@H](C)NC(=O)[C@H](C)NC(=O)[C@@H](N)CO)C(C)C)C(C)C (HELM PEPTIDE1{S.A.A.[O=C(C[C@H](O)[C@H](Cc1ccccc1)N[*:1])[*:2]].V.V.[CO[*:1]]}$$$$V2.0) | 1200 | – | –
